Measurements: patent US8604059B2, “Thioxanthene derivatives for the treatment of infectious diseases” (BKG Pharma APS, priority 2009, dated 2013)
Several values for one entry are separate records, joined by “and”; a condition that tells them apart may be missing. Identical values can stand only once.

Key:
[1] = tested on: Enterococcus faecalis ENT 28 (VRE); test: Mouse peritonitis model, neutropenic NMRI mice, enhancing effect with linezolid; format: in vivo
Protocol: A multiresistant clinical isolate of Enterococcus faecalis ENT 28 (VRE) from human urine was used.
Female NMRI mice (age, approximately 6 to 8 weeks; weight, 30±2 g) were used for the mouse […] peritonitis model (as described below).
In order to detect any synergistic effect, infected mice were treated with sub-therapeutic doses of each test compound alone or a mixture of the two compounds.
Bacterial suspensions were prepared from fresh overnight cultures (made from frozen stock cultures) on 5% blood agar plates as described above. The inoculum for the mouse peritonitis model was prepared immediately before use and was adjusted at 540 nm of giving a density of approximately 10^7 CFU/ml. The size of the inoculum was determined by viability counting on 5% blood agar.
Neutropenia was introduced by pretreating the mice with cyclophosphamide (6 mg daily for three days). […] Antibiotic therapy was initiated just after inoculation. Linezolid and compound 3 was administered subcutaneously in the neck region in a volume of 0.5 ml per dose. 3 mice were in each treatment group. Inoculated untreated control mice were included in all trials. (Method reference: Erlandsdottir et al; Antimicrob Agents Chemother. 2001 April; 45(4):1078-85)
The effects of the various treatment regimens were determined during 5 h of treatment by evaluation of bacterial counts in the peritoneal fluid. After the mice were killed, peritoneal washes were performed by injecting 2 ml of sterile saline intraperitoneally, followed by massage of the abdomen and then opening of the peritoneum to collect the fluid. Peritoneal fluids were immediately diluted 10-fold in saline, from which 20 μl was plated onto 5% blood agar plates in spots, with subsequent counting of colonies after incubation overnight at 35° C. The lowest detection levels for bacterial counts in blood and peritoneal fluid were 50 and 250 CFU/ml, respectively.

strain IIIB of HIV-1 = test: Inhibition of HIV-1 replication in MT4 cells, MTT assay; format: cell-based
Protocol: The enhancing effect of compound 3 on anti-viral agents was studied by checkerboard combination studies exposing HIV infected cells to 0-3 μM anti-viral agent in the absence or presence of compound 3 in concentrations from 0 to 6 μM. Each experiment was repeated in tripleduplicate. MIC values represent the mean values of two separate experiments.
The HIV-1 strain HTLV-IIIB were propagated in H9 cells at 37° C., 5% CO2 using RPMI 1640 with 10% heat-inactivated foetal calf serum (FCS) and antibiotics (growth medium). Culture supernatant was filtered ([…]), aliquotted, and stored at −80° C. until use. The HIV-1 strain was obtained from NIH AIDS Research and Reference Program.
Compounds were examined for possible antiviral activity against strain IIIB of HIV-1 using MT4 cells as target cells. MT4 cells were incubated with virus (0.005 MOI) and growth medium containing the test dilutions of compound(s) for six days in parallel with virus-infected and uninfected control cultures without compound added. Expression of HIV in the cultures was indirectly quantified using the MTT assay as previously described. Compounds mediating less than 30% reduction of HIV expression were considered without biological activity. Compounds were tested in parallel for cytotoxic effect in uninfected MT4 cultures containing the test dilutions of compound as described above. Cultures for test of both antiviral activity and cytotoxic effect were set up in tripleduplicates, […] per culture in micro titre plates. A 30% inhibition of cell growth relative to control cultures was considered significant. The 50% inhibitory concentration was determined by interpolation from the plots of percent inhibition versus concentration of compound.
EC50 is defined as the effective concentration that inhibits 50% of viral production, 50% of viral infectivity, or 50% of the virus-induced cytopathic effect.

Candida albicans = test: Synergy with fluconazole, broth microdilution NCCLS M27-A (Table 10); format: cell-based
Protocol: The isolates were subcultured for 24 h on Sabouraud glucose agar before susceptibility testing. Broth microdilution tests were performed according to NCCLS document M27-A (Ref: National Commitee for Clinical Laboratory Standards. (1997). Reference Method for Broth Dilution Antifungal Susceptibility Testing of Yeasts: Approved Standard M27-A. NCCLS, Wayne, Pa.) Microtitre plates were read spectrophotometrically at 530 nm, after mixing the wells by pipetting to resuspend yeast sediments. […] The Fractional Inhibitory Concentration (FIC) was calculated for the anti-infective agent alone and in combination with compound 3 and 4 (see table 4) as described above. Synergy was defined as a FIC index of <0.5.

[2] = tested on: S. aureus MRSA clinical isolates; test: FIC index, synergy with antibiotics (Table 4a); format: cell-based, Staphylococcus aureus; conditions: with Dicloxacillin; 8 MRSA; mean; compound at ¼ of MIC
Protocol: The effect of the compounds was tested according to the methods described in WO2005/105145. In brief, cell growth was tested using the MIC susceptibility tests by use of the microdilution broth method in accordance to the NCCLS Guidelines (NCCLS Guidelines, Methods for Dilution Antimicrobial Susceptibility Tests for Bacteria That Grow Aerobically; Approved Standard, Sixth Edition, Volume 23; Number 2).
The Fractional Inhibitory Concentration (FIC) index were calculated for each compound as described in WO2005/105145. Synergy was defined for Fractional Inhibitory Concentration (FIC) indices less than 0.5
Staphylococcus aureus: 8 (MRSA) in vivo-selected clinical isolates. Resistant to methicillin and beta-lactam antibiotics. Susceptible to teicoplanin chloramphenicol, fosfomycin, netilmicin and vancomycin.

[3] = tested on: Multiresistant clinical isolates E. coli; test: Maximal reversal of resistance and synergistic effect (Table 4c); format: cell-based; conditions: E. coli multiresistant isolates
Protocol: The maximal obtained reversal of resistance and synergistic effect was tested as previously described.
Strains: Multiresistant clinical isolates E. coli, Ten strains in each group.

Candida species = test: MIC on clinical isolates of Candida species, broth microdilution NCCLS M27-A (Table 3); format: cell-based; conditions: Candida species incl. fluconazole resistant; MIC = 90% growth inhibition
Protocol: The antibacterial effect of demethylated/dealkylated phenothiazine or thioxanthene compounds were studied by growth inhibition studies exposing cells to 0-32 μg/ml of drug. Each experiment was repeated in triplicate. MIC values represent the mean values of two separate triplicate experiments.
4 clinical isolates of Candida species (including 3 fluconazole resistant isolates) were subcultured for 24 h on Sabouraud glucose agar before susceptibility testing. Broth microdilution tests were performed according to NCCLS document M27-A (Ref: National Commitee for Clinical Laboratory Standards. (1997). Reference Method for Broth Dilution Antifungal Susceptibility Testing of Yeasts: Approved Standard M27-A. NCCLS, Wayne, Pa.). Microtitre plates were read spectrophotometrically at 530 nm, after mixing the wells by pipetting to resuspend yeast sediments. In this experiment, the MIC was defined as the lowest drug dilution resulting in 90% growth inhibition.

[4] = treatment 0 and 2 hours, sampling 5 hours, sub-therapeutic doses as in Table 9, individual mice

Compound: Clc1ccc2c(c1)/C(=C/CCC1CCNCC1)c1ccccc1S2 [Compound 3]
- Effect on the infection / bacteria in mouse peritoneum ([1]; sub-therapeutic dose alone): did not affect the bacteria
- score at sampling ([1]; treatment 0 and 2 hours, sampling 5 hours, Linezolid 1 mg/ml 0.5 ml, Compound 3 0.1 mg/ml 0.5, combination Linezolid 2 mg/ml (0.25 ml) and compound 3 0.2 mg/ml (0.25 ml), individual mice): 1 and 2 (2×)
- Cfu/ml peritoneum [1, 4]: 2.35E+09 Cfu/ml and 2.63E+09 Cfu/ml and 3.15E+09 Cfu/ml
- log (cfu/ml) peritoneum [1, 4]: 9.37 log (cfu/ml) and 9.42 log (cfu/ml) and 9.50 log (cfu/ml)
- EC50 (strain IIIB of HIV-1; Human immunodeficiency virus 1, IIIB, 144 h, single agent, MT4 cells, six days, read-out: EC50): > 4 µM
- Antiviral effect alone (strain IIIB of HIV-1; at the concentrations used): no antiviral or cytotoxic effect
- Enhancement of the antiviral effect of AZT (strain IIIB of HIV-1; combination of compound 3 and AZT): 5 time
- MIC (Candida albicans; Candida albicans, compound alone, read-out: MIC Compound): 1 µg/mL
- FIC index (Candida albicans; in combination with fluconazole): 0.28
- FIC index [2]: 0.25
- Maximal reversal of resistance: concentration of compound [3]: 0.6 µg/mL
- MIC Mean (range) (Candida species): 1.0 (0.25-2.0) μ/ml
